These results are taken from patent publication US8916549B2, “Thienooxazepine derivative” (Takeda Pharmaceutical Company Limited, priority 2009, dated 2014).

Structures can show the parent of a compound that is named as a salt.

For the assay, the target named is serotonin 5-HT2C receptor (isoform type VSV, stably expressing CHO cell) (Homo sapiens, UniProt P28335, I156V/I160V/N158S). Description: cell-based. The note with it: read-out: ratio to maximum response by 5-HT (1 μM).
serotonin 5-HT2C receptor (isoform type VSV, stably expressing CHO cell), sequence (P28335 33-458 I156V/N158S/I160V limits assumed): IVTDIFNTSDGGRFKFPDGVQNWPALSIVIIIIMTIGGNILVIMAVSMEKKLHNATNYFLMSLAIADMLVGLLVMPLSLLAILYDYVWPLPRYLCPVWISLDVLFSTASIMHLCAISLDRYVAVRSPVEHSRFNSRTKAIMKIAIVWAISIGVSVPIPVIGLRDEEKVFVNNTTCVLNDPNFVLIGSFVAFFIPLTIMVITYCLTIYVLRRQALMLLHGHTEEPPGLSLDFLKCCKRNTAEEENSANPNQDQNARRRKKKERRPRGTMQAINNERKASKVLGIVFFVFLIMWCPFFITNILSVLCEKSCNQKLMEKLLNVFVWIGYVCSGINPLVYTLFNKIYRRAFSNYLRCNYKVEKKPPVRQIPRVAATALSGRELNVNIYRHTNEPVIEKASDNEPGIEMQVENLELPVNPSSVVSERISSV
As for `Fc1cccc(-c2csc3c2OCCNC3)c1` [Example 2, 8-(3-fluorophenyl)-2,3,4,5-tetrahydrothieno[2,3-f][1,4]oxazepine 1 hydrochloride], the Emax is 101%.
The value for `c1sc2c(c1C1CC1)OCCNC2` [Example 3, 8-cyclopropyl-2,3,4,5-tetrahydrothieno[2,3-f][1,4]oxazepine 1 hydrochloride] was 98%; that for `CC(C)c1csc2c1OCCNC2` [Example 4, 8-(1-methylethyl)-2,3,4,5-tetrahydrothieno[2,3-f][1,4]oxazepine 1 hydrochloride] was 99%.
The value for `c1sc2c(c1C1CCC1)OCCNC2` [Example 5, 8-cyclobutyl-2,3,4,5-tetrahydrothieno[2,3-f][1,4]oxazepine 1 hydrochloride] was 107%; that for `COc1cccc(-c2csc3c2OC(C)CNC3)c1` (stereo not drawn) [Example 6, 8-(3-methoxyphenyl)-2-methyl-2,3,4,5-tetrahydrothieno[2,3-f][1,4]oxazepine 1 hydrochloride] was 97%.
The value for `C[C@H]1CNCc2scc(-c3cccc(F)c3)c2O1` [Example 12, (2S)-8-(3-fluorophenyl)-2-methyl-2,3,4,5-tetrahydrothieno[2,3-f][1,4]oxazepine 1 hydrochloride] was 101%.
Take `C[C@H]1CNCc2scc(C3CC3)c2O1` [Example 14, (2S)-8-cyclopropyl-2-methyl-2,3,4,5-tetrahydrothieno[2,3-f][1,4]oxazepine 1 hydrochloride]: the Emax was 100%.
For `CC(C)c1csc2c1O[C@@H](C)CNC2` [Example 15, (2S)-2-methyl-8-(1-methylethyl)-2,3,4,5-tetrahydrothieno[2,3-f][1,4]oxazepine 1 hydrochloride] the value was 96%; for `CCCc1csc2c1O[C@@H](C)CNC2` [Example 16, (2S)-2-methyl-8-propyl-2,3,4,5-tetrahydrothieno[2,3-f][1,4]oxazepine 1 hydrochloride], 97%.
The value for `Cc1sc2c(c1C1CC1)OCCNC2` [Example 17, 8-cyclopropyl-7-methyl-2,3,4,5-tetrahydrothieno[2,3-f][1,4]oxazepine 1 hydrochloride] was 91%; that for `CC(c1csc2c1OCCNC2)C(F)(F)F` (stereo not drawn) [Example 20, 8-(2,2,2-trifluoro-1-methylethyl)-2,3,4,5-tetrahydrothieno[2,3-f][1,4]oxazepine 1 hydrochloride] was 85%; that for `CC(c1csc2c1O[C@@H](C)CNC2)C(F)(F)F` (stereo partly drawn) [Example 21, (2S)-2-methyl-8-(2,2,2-trifluoro-1-methylethyl)-2,3,4,5-tetrahydrothieno[2,3-f][1,4]oxazepine 1 hydrochloride] was 94%.
